From patent US11034692B1 (Genentech, Inc., priority 2017, dated 2021) come the findings set out here.

The first test deals with HPK1. In words: HPK1 Lantha Binding Assay ("Lanth"). The following applies: Table B1-1, read-out: HPK1 Ki (μM) (Lanth). The method, then:
HPK1 Lantha Binding Assay (“Lanth”)
The compounds to be tested were diluted by preparing 12.5 uL/well of 5 mM compound (100×) in columns 2 and 13 and 10 ul/well of DMSO in columns 3-12, 14-23, and wells A1-H1 and I24-P24 of the compound plate using a Bravo liquid handling platform. For the reference compound, the top concentration was 1 mM. To the plate was added 10 ul 2 mM staurosporine in wells J1-P1 and A24-H24. A 11 point 5-fold compound serial dilution was performed using the Bravo liquid handling platform. From the plate were transferred 2.5 ul of the solutions from column 2 and column 13 to the 10 ul of DMSO in columns 3 and 14 & so on. The compound plate was centrifuged at 2500 rpm for 1 min. From the compound plate was transferred 80 nl of the compounds into an assay plate using the Echo liquid handler system. One compound plate makes two assay plates. Each assay plate is sealed and stored in an N2 cabinet.
The following assay concentrations and times were used: 2 nM HPK1, 2 nM Eu-Anti-GST Ab, and 15 nM Tracer222, with 60 min incubation time.
III. HPK Lantha Binding Assay:
For the binding assay, 4 ul 2×HPK1 and Eu-anti-GST antibody were added to each well of the assay plate using a Multidrop reagent dispenser. The solutions were incubated in a 23 C incubator for 1 h. To each well of the assay plate was added 4 ul 2× Tracer-222 using a Multidrop reagent dispenser. The solutions were again incubated in a 23 C incubator for 1 h. The results of the assay were read using an Envision plate reader with the following parameters: TR_FRET, 340ex/615 and 665em; 100 usec Delay; and 200 usec integration.
Compound Ki was analyzed using Morrison ki fit model in XL-fit • a. fit=(1−((((E+x)+(Ki*(1+(S/Kd))))−(((((E+x)+(Ki*(1+(S/Kd))))[…])−((4*E)*x))^0.5))/(2*E))) • res=(y-fit) • b. Parameters: • E=enzyme concentration • S=Tracer222 concentration, Kd=Tracer222 Kd • All measurements reported using the same units (uM)
Exemplary compounds of Formula I or Ia were tested in the binding assays. The Ki data in Table B1-1 are based on the “Lanth” assay.
In general, Ki refers to a measure of affinity in units of concentration, obtained from inhibition or displacement. Turning to `Cc1cc2c(cc1-c1cc3cc(NC(=O)[C@H]4C[C@@H]4C#N)ncc3c(N)n1)C(O)C(=O)N2` (relative stereo) [Compound 160, trans-N-[8-amino-6-(3-hydroxy-6-methyl-2-oxo-indolin-5-yl)-2,7-naphthyridin-3-yl]-2-cyano-cyclopropanecarboxamide], the inhibitory constant (Ki) came to 0.0012 µM.

`CCc1c(-c2cnccc2C)nc(N)c2cnc(NC(=O)[C@@H]3C[C@H]3CC#N)cc12` (stereo in doubt) [Compound 271, (1R,2S)—N-[8-amino-5-ethyl-6-(4-methylpyridin-3-yl)-2,7-naphthyridin-3-yl]-2-(cyanomethyl)cyclopropane-1-carboxamide]: the Ki is 0.000768 µM.

For `Cn1cc([C@H]2C[C@@H]2C(=O)Nc2cc3cc(-c4ccccc4Cl)nc(N)c3cn2)cn1` (stereo in doubt) [Compound 304, (1S,2S)—N-[8-amino-6-(2-chlorophenyl)-2,7-naphthyridin-3-yl]-2-(1-methyl-1H-pyrazol-4-yl)cyclopropane-1-carboxamide], the inhibitory constant (Ki) is 0.00302 µM.

`Cn1cc([C@H]2C[C@@H]2C(=O)Nc2cc3cc(-c4c(F)cccc4F)nc(N)c3cn2)cn1` (stereo in doubt) [Compound 306, (1S,2S)—N-[8-amino-6-(2,6-difluorophenyl)-2,7-naphthyridin-3-yl]-2-(1-methyl-1H-pyrazol-4-yl)cyclopropane-1-carboxamide]: the inhibitory constant (Ki) is 0.00325 µM.

As for `Cn1cc([C@@H]2C[C@H]2C(=O)Nc2cc3cc(-c4c(F)cccc4F)nc(N)c3cn2)cn1` (stereo in doubt) [Compound 307, (1R,2R)—N-[8-amino-6-(2,6-difluorophenyl)-2,7-naphthyridin-3-yl]-2-(1-methyl-1H-pyrazol-4-yl)cyclopropane-1-carboxamide], the inhibitory constant (Ki) was 0.000112 µM.

As to `Cc1ccncc1-c1cc2cc(NC(=O)[C@@H]3C[C@@H]3F)ncc2c(N)n1` [Compound 6, (1S,2S)—N-(8-amino-6-(4-methylpyridin-3-yl)-2,7-naphthyridin-3-yl)-2-fluorocyclopropanecarboxamide], the Ki is 0.000793 µM.

With `Cn1cc(-c2cc3cc(NC(=O)[C@@H]4C[C@@H]4F)ncc3c(N)n2)cn1` [Compound 7, (1S,2S)—N-(8-amino-6-(1-methyl-1H-pyrazol-4-yl)-2,7-naphthyridin-3-yl)-2-fluorocyclopropanecarboxamide], the Ki was 0.00289 µM.

In the case of `CNC(=O)Nc1cc2cc(-c3cnn(C)c3)nc(N)c2cn1` [Compound 9, 1-(8-amino-6-(1-methyl-1H-pyrazol-4-yl)-2,7-naphthyridin-3-yl)-3-methylurea], the Ki is 0.00716 µM.

On to `COc1ccncc1-c1cc2cc(NC(=O)[C@@H]3C[C@@H]3F)ncc2c(N)n1` [Compound 10, (1S,2S)—N-(8-amino-6-(4-methoxypyridin-3-yl)-2,7-naphthyridin-3-yl)-2-fluorocyclopropanecarboxamide], for which the Ki was determined as 0.00173 µM.

For `Cc1ccncc1-c1cc2cc(NC(=O)C3CC3(F)F)ncc2c(N)n1` (stereo not drawn) [Compound 11, N-(8-amino-6-(4-methylpyridin-3-yl)-2,7-naphthyridin-3-yl)-2,2-difluorocyclopropanecarboxamide], the Ki amounted to 0.00365 µM.

Consider `Cc1ncncc1-c1cc2cc(NC(=O)[C@@H]3C[C@@H]3F)ncc2c(N)n1` [Compound 12, (1S,2S)—N-(8-amino-6-(4-methylpyrimidin-5-yl)-2,7-naphthyridin-3-yl)-2-fluorocyclopropanecarboxamide], for which the Ki came out at 0.0493 µM.

Regarding `CCc1ncncc1-c1cc2cc(NC(=O)[C@@H]3C[C@@H]3F)ncc2c(N)n1` [Compound 13, (1S,2S)—N-(8-amino-6-(4-ethylpyrimidin-5-yl)-2,7-naphthyridin-3-yl)-2-fluorocyclopropanecarboxamide], the Ki was 0.0156 µM.

As to `Nc1nc(-c2cnccc2C(F)F)cc2cc(NC(=O)[C@@H]3C[C@@H]3F)ncc12` [Compound 14, (1S,2S)—N-(8-amino-6-(4-(difluoromethyl)pyridin-3-yl)-2,7-naphthyridin-3-yl)-2-fluorocyclopropanecarboxamide], the inhibitory constant (Ki) turned out to be 0.00946 µM.

`N#Cc1ccncc1-c1cc2cc(NC(=O)[C@@H]3C[C@@H]3F)ncc2c(N)n1` [Compound 15, (1S,2S)—N-(8-amino-6-(4-cyanopyridin-3-yl)-2,7-naphthyridin-3-yl)-2-fluorocyclopropanecarboxamide]: the Ki was found to be 0.0226 µM.

For the molecule `Cc1c(F)cncc1-c1cc2cc(NC(=O)[C@@H]3C[C@@H]3F)ncc2c(N)n1` [Compound 17, (1S,2S)—N-(8-amino-6-(5-fluoro-4-methylpyridin-3-yl)-2,7-naphthyridin-3-yl)-2-fluorocyclopropanecarboxamide], the inhibition constant (Ki) was found to be 0.0161 µM.

As to `Cn1nccc1-c1cc2cc(NC(=O)[C@@H]3C[C@@H]3F)ncc2c(N)n1` [Compound 18, (1S,2S)—N-(8-amino-6-(1-methyl-1H-pyrazol-5-yl)-2,7-naphthyridin-3-yl)-2-fluorocyclopropanecarboxamide], the Ki amounted to 0.0475 µM.

On to `CCc1ccncc1-c1cc2cc(NC(=O)C3CCC3)ncc2c(N)n1` [Compound 20, N-[8-amino-6-(4-ethyl-3-pyridyl)-2,7-naphthyridin-3-yl]cyclobutanecarboxamide], for which the Ki is 0.00322 µM.

As for `Cc1cc(CO)ncc1-c1cc2cc(NC(=O)C3CC3)ncc2c(N)n1` [Compound 25, N-(8-amino-6-(6-(hydroxymethyl)-4-methylpyridin-3-yl)-2,7-naphthyridin-3-yl)cyclopropanecarboxamide], the Ki stood at 0.00154 µM.

For the molecule `CCc1ccncc1-c1cc2cc(NC(=O)C3CC3)ncc2c(N)n1` [Compound 26, N-(8-amino-6-(4-ethylpyridin-3-yl)-2,7-naphthyridin-3-yl)cyclopropanecarboxamide], the inhibition constant Ki is 0.00021 µM.

`Cn1cc(-c2cc3cc(NC(=O)C4CC4)ncc3c(N)n2)cn1` [Compound 27, N-[8-amino-6-(1-methylpyrazol-4-yl)-2,7-naphthyridin-3-yl]cyclopropanecarboxamide]: the inhibition constant (Ki) was 0.00108 µM.

On to `CCc1ccncc1-c1cc2cc(NC(=O)CCC#N)ncc2c(N)n1` [Compound 28, N-[8-amino-6-(4-ethyl-3-pyridyl)-2,7-naphthyridin-3-yl]-3-cyano-propanamide], for which the Ki is 0.0149 µM.

Consider `CCc1ccncc1-c1cc2cc(NC(=O)CCC(N)=O)ncc2c(N)n1` [Compound 29, N′-[8-amino-6-(4-ethyl-3-pyridyl)-2,7-naphthyridin-3-yl]butanediamide], for which the Ki worked out at 0.014 µM.

For the molecule `CCc1ccncc1-c1cc2cc(NC(=O)NCc3cncs3)ncc2c(N)n1` [Compound 30, 1-[8-amino-6-(4-ethyl-3-pyridyl)-2,7-naphthyridin-3-yl]-3-(thiazol-5-ylmethyl)urea], the Ki turned out to be 0.00175 µM.

For `CCc1ccncc1-c1cc2cc(NC(=O)NC(C)C)ncc2c(N)n1` [Compound 31, 1-[8-amino-6-(4-ethyl-3-pyridyl)-2,7-naphthyridin-3-yl]-3-isopropyl-urea], the Ki is 0.0039 µM.

Take `CCc1ccncc1-c1cc2cc(NC(=O)CC#N)ncc2c(N)n1` [Compound 32, N-[8-amino-6-(4-ethyl-3-pyridyl)-2,7-naphthyridin-3-yl]-2-cyano-acetamide]: the inhibition constant Ki is 0.0264 µM.

In the case of `CCc1ccncc1-c1cc2cc(NC(=O)N(C)C)ncc2c(N)n1` [Compound 33, 3-[8-amino-6-(4-ethyl-3-pyridyl)-2,7-naphthyridin-3-yl]-1,1-dimethyl-urea], the inhibition constant (Ki) amounted to 0.0341 µM.

With `Cc1ccncc1-c1cc2cc(NC(=O)C(C)(C)C#N)ncc2c(N)n1` [Compound 35, N-(8-amino-6-(4-methylpyridin-3-yl)-2,7-naphthyridin-3-yl)-2-cyano-2-methylpropanamide], the Ki worked out at 5.54 µM.

Turning to `COC(C)(C)C(=O)Nc1cc2cc(-c3cnccc3C)nc(N)c2cn1` [Compound 36, N-(8-amino-6-(4-methylpyridin-3-yl)-2,7-naphthyridin-3-yl)-2-methoxy-2-methylpropanamide], the Ki stood at 4.08 µM.

Regarding `Cc1ccncc1-c1cc2cc(NC(=O)C(C)(C)O)ncc2c(N)n1` [Compound 39, N-(8-amino-6-(4-methylpyridin-3-yl)-2,7-naphthyridin-3-yl)-2-hydroxy-2-methylpropanamide], the Ki came out at 2.03 µM.

Staying with this test, now noted: Table B1-2, read-out: HPK1 Ki, L = Lanth.
On to `Cc1cc(C2=N[C@@H](C(C)C)CO2)ncc1-c1cc2cc(NC(=O)[C@H]3C[C@@H]3c3cnn(C)c3)ncc2c(N)n1` (stereo in doubt) [Compound 384, trans-N-(8-amino-6-(6-((S)-4-isopropyl-4,5-dihydrooxazol-2-yl)-4-methylpyridin-3-yl)-2,7-naphthyridin-3-yl)-2-(1-methyl-1H-pyrazol-4-yl)cyclopropane-1-carboxamide], for which the inhibitory constant (Ki) came to 0.0018 µM.
